{
  "source": "patent US9173864B2",
  "about": "“Treatment and/or prevention of inner ear conditions by modulation of a metabotropic glutamate receptor” (House Ear Institute, priority 2008, dated 2015)",
  "test_system": "patients with symptoms of presbycusis",
  "assay": "Administration of FTIDC to patients with presbycusis (Example 5)",
  "assay_type": "in vivo, human",
  "conditions": "person; for hearing threshold, left ear / hearing threshold, right ear: after 14 days",
  "method": "A person presents with symptoms of presbycusis, including moderate loss of higher frequency (above 2000 Hz) hearing (50 decibel threshold) in both ears. The person is administered two drops per ear twice daily of a topical otic formulation comprising 10 ug/ml of FTIDC in a phosphate-buffered saline and further comprising 0.25% the carboxyvinyl water swellable gelling agent, Carbopol 934P; i.e., about […] of FTIDC per ear per dosing. After 14 days, the patient is tested by an audiologist. The threshold is lowered to 35 decibels right ear and 40 decibels left ear.\nA person presents with symptoms of presbycusis, including loss of moderately high frequency (above 1000 Hz) hearing (40 decibel threshold right ear and 35 decibel threshold left ear). The person is administered an oral formulation 4 times per day comprising 2 ug per dose of FTIDC. The extended release capsule comprises a matrix of 10% by weight hydroxypropyl methylcellulose (e.g., Methocel®; Dow Chemical Company, U.S.A), and 50% by weight of a cornstarch filler. After 14 days, the threshold is lowered to 35 decibels right ear and 25 decibels left ear.\nA person presents with symptoms of presbycusis, including loss of hearing in the 500 to above 2000 Hz range. The person is implanted with an Alset® osmotic pump adapted for cochlear delivery; see e.g., Richardson, R. T., Noushi, F., O'Leary, S. Inner ear therapy for neural preservation. AUDIOLOGY AND NEURO-OTOLOGY 2006; 11(6): 343-356. The pump is supplied with an aqueous sterile solution comprising FTIDC. The pump delivers a dose of 10 ug/hour of the modulator.",
  "key": {"[1]": {"conditions": "higher frequency (above 2000 Hz) loss, 50 decibel threshold before, topical otic drops 10 ug/ml twice daily"}},
  "data": [
    {"smiles": "Cc1c(C2=CCN(C(=O)N(C)C(C)C)CC2)nnn1-c1cccnc1F", "note": "[FTIDC, 4-[1-(2-fluoropyridin-3-yl)-5-methyl-1H-1,2,3-triazol-4-yl]-N-isopropyl-N-methyl-3,6-dihydropyridine-1(2H)-carboxamide]", "values": [
      {"measurement": "hearing threshold, left ear", "setting": "above 1000 Hz loss, 35 decibel threshold before, oral extended release capsule 2 ug per dose 4 times per day", "result": 25, "unit": "decibels"},
      {"measurement": "hearing threshold, right ear", "setting": "above 1000 Hz loss, 40 decibel threshold before, oral extended release capsule 2 ug per dose 4 times per day", "result": 35, "unit": "decibels"},
      {"measurement": "hearing threshold, left ear", "setting": "[1]", "result": 40, "unit": "decibels"},
      {"measurement": "hearing threshold, right ear", "setting": "[1]", "result": 35, "unit": "decibels"},
      {"measurement": "hearing", "setting": "loss in 500 to above 2000 Hz range, osmotic pump cochlear delivery 10 ug/hour, after 10 days", "result": "hearing is improved in both ears"}
    ]}
  ]
}
